US9808434B2, “Compound for treating cancer and diabetes” (CITY OF HOPE, priority 2011, dated 2017)
Entries after “also recorded” stand apart in the source; their conditions may differ.

Experiments:
[1] = tested on: 3T3-L1 cells; assay: Adipocyte differentiation, Oil Red O staining; format: cell-based, mouse; details: preadipocytes 7 days in differentiating media (DM) + compound
Description: Two-day post-confluent 3T3-L1 preadipocyte cells were allowed to differentiate for 7 days in the presence of nothing, DM only, DM+ a test compound (COH-SR1, COH-SR2, COH-SR3, COH-SR4, COH-SR7, LR23 or LR59), or DM+ a positive control (TSA, C75, or Apicidin).
3T3-L1 preadipocytes cells were treated with differentiating media (DM) with COH-SR4 (1 μM, 3 μM, or 5 μM) or without for 7 days. […] As used in FIG. 9C, U=undifferentiated, D=differentiated with cocktail media.

[2] = tested on: B16F10 cells; assay: B16F10 cell viability; format: cell-based, mouse; details: 1-10 μM, 48 hours; vs COH-SR9 and COH-SR18
Description: Cells of highly aggressive mouse melanoma cell line B16F10 were incubated with various doses of COH-SR4, COH-SR9 and COH-SR18 (1, 3, 5 or 10 μM) for 48 hours.

[3] = Blood chemistries in C57 B mice; format: in vivo, mouse; details: 4 mg/kg b.w. alternate day, 2 weeks
Description: To evaluate the potential toxicity of COH-SR4 on animals, C57 B mice were treated with 0.1 mg/mice (4 mg/kg b.w.) of COH-SR4 or with vehicle on alternate day for 2 weeks (n=6). After the treatment period, blood and plasma/serum were isolated and analyzed. […] The plasma alanine transaminase (ALT) and alkaline phosphatase (ALP) were moderately higher in COH-SR4-treated mice (p<0.05), while the levels of two other liver enzymes; aspartate transaminase (AST) and lactate dehydrogenase (LDH) were similar with control mice (Table 5).

[4] = tested on: H1618; assay: Colony formation assay, H1618; format: cell-based, human; details: 1.5 μM
Description: (§1) Cell survival was evaluated using a standard colony-forming assay. In total, 1×10^5 cells/mL were incubated with COH-SR4 (1.5 μM or 5 μM) or elesclomol (5 μM) for 24 h, and aliquots of 50 or 100 μL were added to 60 mm size petri dishes, containing 4 mL culture medium. After 7 or 10 days, adherent colonies were fixed, stained with 0.5% methylene blue for 30 min and colonies were counted using the Innotech Alpha Imager HP (91).
(§2) The effect of COH-SR4 was first examined in a NCI panel of cancer cell lines, the results of which indicated good activity of COH-SR4 towards lung cancer (FIG. 78A). […] Values are presented as mean±SD from two separate determinations with eight replicates each (n=16) (FIG. 78B). The COH-SR4 treatment exerted a significant inhibitory effect on the survival of lung cancer cells [IC50: H1417 cells-1.2±0.2 μM, H1618 cells-1.5±0.2 μM, H358 cells-2.1±0.2 μM and H520 cells-2.4±0.3 μM]. […] Following initial screening for the anticancer activity of COH-SR4, the effect of COH-SR4 on clonogenic potential was studied. Standard colony-forming assay was performed and the colonies were counted using Innotech Alpha Imager HP. […] The effect of COH-SR4 on induction of apoptosis was further investigated. […] TUNEL assay was performed using Promega fluorescence detection kit and examined using Zeiss LSM 510 META laser-scanning fluorescence microscope with filters 520 and 620 nm. […]

[5] = tested on: H358; assay: Colony formation assay, H358; format: cell-based, human; details: 1.5 μM
Description: as §1, §2

[6] = tested on: H520; assay: Colony formation assay, H520; format: cell-based, human; details: 1.5 μM
Description: as §1, §2

[7] = Metabolic effects in HFD obese mice; format: in vivo, mouse
Description: All animal experiments were carried out in accordance with the protocols approved by the Institutional Animal Care and Use Committee of the City of Hope. Nine-week old male C57BL/6J mice fed on high fat diet (HFD, 60% fat) and 10-week old db/db mice were given COH-SR4 (5 mg/kg B.W.) or vehicle (corn oil) via oral gavage every other day for six and five weeks, respectively. Oral glucose tolerance test was performed on animals after an overnight fast. All other metabolic parameters were measured at the end of study. Liver samples were stained with H&E and Oil Red O.
All data represented are mean±SEM. *P<0.05, **P<0.01 vs. LFD or db/+; ^#P<0.05, ^##P<0.01 vs. HFD or db/db. n=12 animals per group for HFD mice. LFD=low fat diet (lean), HFD=high fat diet (obese). n=8 animals per group for db/db mice.
Representative mice in each treatment group (LFD, HFD, and HFD treated with COH-SR4 (HFD+SR4)) depicted gross images of whole body shape (top) and abdominal fat (bottom) (FIG. 85A).

[8] = tested on: hepatic genes; assay: Liver gene expression of HFD obese and db/db mice; format: in vivo, mouse; details: RT-PCR and RNA-seq
Description: Total RNA was isolated from livers of lean, vehicle or COH-SR4-treated HFD mice using standard protocols and subjected to quantitative RT-PCR using primers for key genes associated with lipid and fatty acid synthesis (Acaca, Pparg, Acly, Scd1, Srebf1, Hmgcr, Cpt1, Fasn) and gluconeogenesis (G6pc, Pck1). Livers of db/+ and db/db mice treated with vehicle or COH-SR4 were used for RNA-seq analysis. RNA isolation, purification, sequencing, library preparation and read alignments were done at the City of Hope Functional Genomics Core facility. Differential gene expression was identified from standard Partek workflow (Partek Genomics Suite v6.6, Partek, Inc) using ANOVA, with step-up FDR multiple testing correction p-value of <0.05 and 1.5× fold change. […] Databases utilized included GOTERM_BP_FAT (biological process) and Kyoto Encyclopedia of Genes and Genomes (KEGG_PATHWAY).
Total RNA was isolated from liver of control animals and HFD obese or db/db mice treated with vehicle or COH-SR4 (as described in Example 35). Relative mRNA expression (mean±SEM) of lipogenic and gluconeogenic genes were determined using real time RT-PCR and quantified using the comparative Ct method (FIG. 86A, ^#P<0.05, ^##P<0.01 vs. HFD). […] Key hepatic genes associated with lipid/fatty acid synthesis and glucose and amino acid metabolism regulated by COH-SR4 in db/db mice are shown in FIG. 86D.

O=C(Nc1cc(Cl)cc(Cl)c1)Nc1cc(Cl)cc(Cl)c1 [COH-SR4, 1,3-bis(3,5-dichlorophenyl) urea]
differentiation and accumulation of lipid droplets (Oil Red O staining) [1]: dose-dependently inhibited differentiation and accumulation of lipid droplets; also recorded: prevented accumulation of fat droplets
potency in killing B16F10 cells [2]: best potency
Hematocrit ([3]; mean ± SE, n=6): 41.0 ± 0.7%
Hemoglobin ([3]; mean ± SE, n=6): 13.9 ± 0.4 g/dL
Platelets ([3]; mean ± SE, n=6): 1055 ± 124 ×10^3/uL
RBC ([3]; mean ± SE, n=6): 8.7 ± 0.2 ×10^6/uL
WBC ([3]; mean ± SE, n=6): 7.4 ± 0.9 ×10^3/uL
ALP ([3]; plasma/serum): 119.3 ± 2.4 units/L
ALT ([3]; plasma/serum): 73.3 ± 2.4 units/L
AST ([3]; plasma/serum): 48.0 ± 3.0 units/L
Albumin ([3]; plasma/serum): 2.4 ± 0.1 g/dL
Cholsterol ([3]; plasma/serum): 82.0 ± 0.1 mg/dL
Creatinine ([3]; plasma/serum): 0.2 ± 0.0 mg/dL
Glucose ([3]; plasma/serum): 304.2 ± 21.1 mg/dL
LDH ([3]; plasma/serum): 822.7 ± 56.0 units/L
Triglycerides ([3]; plasma/serum): 78.7 ± 2.4 mg/dL
colony formation [4]: 48±9%
colony formation [5]: 47±7%
colony formation [6]: 54±5%
body weight ([7]; 5 mg/kg oral every other day, six weeks): decreased body weight
glucose tolerance ([7]; six weeks): improved glucose tolerance
hepatic lipid accumulation (Oil Red O, H&E) ([7]; six weeks): little hepatic lipid accumulation
plasma insulin concentration ([7]; six weeks): lower plasma insulin concentration
plasma lipids ([7]; six weeks): significantly reduced plasma lipids
food intake ([7]; vs control HFD mice): No significant difference in food intake
hepatic pathways affected [8]: downregulated hepatic lipogenesis and glucose metabolic pathways, while upregulating amino acid metabolism
